Results taken from patent US11453671B2, “Pyrazolopyrimidine inhibitors of JAK kinases and uses thereof” (Genentech, Inc., priority 2020, dated 2022).

What was measured:
[1] = biological target: T1, recombinant human JAK1 kinase domain protein (Residues 854-1154) (Homo sapiens, UniProt P23458); assay: JAK1 biochemical assay (microfluidic mobility shift, peptide phosphorylation); settings: 25 μM ATP, 1 nM total JAK1; read-out: Enzyme JAK1 Ki
T1 construct: human JAK1 kinase domain protein (Residues 854-1154); purchased Proteros Biostructures GmbH (Martinsried, Germany); host or cells: insect cells
Text: JAK1 and JAK2 Biochemical Assays

[2] = test system: JAK1: IL-13-stimulated STAT6 phosphorylation in BEAS-2B cells; assay: P-STAT6 BEAS-2B+IL-13 Cell Assay; format: cell-based, human; settings: Homo sapiens, BEAS-2B, IL-13 stimulation, read-out: Cellular JAK1 PSTAT6 BEAS2B + IL13 IC50
Method: P-STAT6 BEAS-2B+IL-13 Cell Assay
In order to study the effect of JAK1 inhibitors in a cell line that is relevant to the cell biology of human asthma, an IL-13-stimulated STAT6 phosphorylation assay in the human lung bronchial epithelial BEAS-2B cell line was developed.
BEAS-2B cells (ATCC® CRL-9609™) were grown in Bronchial Epithelial Growth Medium (BEGM) (Lonza Catalog No. CC-3170; Walkersville, Md.; or PromoCell Catalog No. C-21060; Heidelberg, Germany). Test compound stock solutions (0.5 mM in DMSO) were serially diluted 1:2 in DMSO to generate a 10-point concentration curve (at 500×test concentration), which was further diluted by a 50-fold dilution step in BEGM to generate a 10× concentration curve (in 2% DMSO). Cells were plated at 100,000 cells/well in 200 μL of BEGM in 96-well plates and incubated for 48 hours at 37° C. in a humidified incubator. Medium was aspirated from the cells and replaced with 70 μL of fresh BEGM. Diluted test compound (10 μL; or 2% DMSO in assay medium) was added to the cells, and the plates were incubated for 1 hour at 37° C. in a humidified incubator. Twenty μL of 250 ng/mL human recombinant IL-13 (Bio Techne Catalog No. 213-ILB) was then added to the cells and incubated for 15 minutes at 37° C. Medium was aspirated from the cells and 60 μL of ice-cold 1×cell lysis buffer (Cell Signaling Technologies; Catalog No. 9803S) containing 1 mM PMSF was added to the cells. Assay plates were incubated at −80° C. for at least 1 hour. P-STAT6 was measured by coating GAR plates (MSD; Catalog No. L45RA-1) with rabbit anti-human total STAT6 antibody (Cell Signaling Technologies; Catalog No. 9362S), incubating the cell lysates in the coated plates overnight at 4° C., and then detecting with mouse anti-phospho-STAT6 (Tyr641) Clone 16E12 antibody (Millipore; Catalog No. 05-590, custom labeled by MSD with SULFO-tag) using standard MSD plate processing, washing, and detection protocols. Plates were read on the MESO SECTOR S600. Data Analysis
Data analysis was performed by subtracting negative control values from all wells and determining percent of control using the positive control values; the IC50 was determined with a four-parameter logistic fit model as shown in Equation 4.

[3] = Cell cytotoxicity assay HEK-293T (CellTiter-Glo, 72 hours); format: cell-based; settings: human, HEK-293T cells, read-out: Cytotox K-293 EC50
Text: (§1) Cytotoxicity assays. Hepatocyte toxicity, general cytotoxicity or cytotoxicity of unknown mechanism is an undesirable feature for a potential drug, including inhaled drugs. It may be of benefit for an inhaled JAK1 or JAK1/JAK2 inhibitor to have low intrinsic cytotoxicity against various cell types. Typical cell types used to assess cytotoxicity include both primary cells such as human hepatocytes, and proliferating established cell lines such as Jurkat and HEK-293. […] Methods of measuring cytotoxicity are known in the art. In some embodiments, compounds described herein were tested as follows:
(§2) (a) Jurkat and HEK293T cells were maintained at a sub confluent density in T175 flasks. Cells were plated at 450 cells/45 μl medium in Greiner 384 well black/clear tissue culture treated plates. (Greiner Catalog #781091). After dispensing cells, plates were equilibrated at room temperature for 30 minutes. After 30 minutes at room temperature, cells were incubated overnight at 37° C. in a CO2 and humidity controlled incubator. The following day, cells were treated with compounds diluted in 100% DMSO (final DMSO concentration on cells=0.5%) with a 10 point dose-response curve with a top concentration of 50 μM. Cells and compounds were then incubated for 72 hours overnight at 37° C. in a CO2 and humidity controlled incubator. After 72 hours of incubation, viability was measured using CellTiterGlo® (Promega Catalog #G7572) to all wells. After incubation at room temperature for 20 minutes, plates were read on EnVision™ (Perkin Elmer Life Sciences) using luminescence mode;
(§3) A549 (ATCC® CCL-185™), Jurkat clone E6-1 (ATCC® TIB-152™) and HEK-293T (ATCC® CRL-1573™) cells maintained at a sub-confluent density in T175 flasks were used. Cells in exponential growth phase were plated (450 cells in 45 μL of medium) in Greiner 384-well black/clear tissue culture treated plates (Greiner Catalog No. 781091). After dispensing cells, plates were allowed to equilibrate at room temperature for 30 minutes, after which time the cell plates were placed overnight in a 37° C. CO2 and humidity-controlled incubator. The following day, cells were treated with test agent diluted in 100% DMSO (0.5% final DMSO concentration on cells) with a 10-point titration and a top concentration of 50 μM. Cells and compounds were then incubated for 72 hours in a 37° C. CO2 and humidity-controlled incubator, after which time cell viability was measured by adding CellTiter-Glo® (Promega G7572) reagent to all wells. Plates were incubated at room temperature for 20 minutes and then the well luminescence was read on an EnVision plate reader (Perkin Elmer Life Sciences).

[4] = Cell cytotoxicity assay Jurkat (CellTiter-Glo, 72 hours); format: cell-based; settings: human, Jurkat clone E6-1 cells, read-out: Cytotox Jurkat EC50
Text: as §1, §2, §3

[5] = Cell cytotoxicity assay A549 (CellTiter-Glo, 72 hours); format: cell-based; settings: human, A549 cells, read-out: Cytotox A549 EC50
Method: as §3

[6] = biological target: Recombinant human JAK2 kinase domain protein (Residues 812-1132) (Homo sapiens, UniProt O60674); assay: JAK2 biochemical assay (microfluidic mobility shift, peptide phosphorylation); settings: Enzyme JAK2 Ki (nM), 25 μM ATP, 0.2 nM total JAK2
[7] = Table 3, 72 hours, top concentration of 50 μM
[8] = Table 4, methyl-desmethyl analog pairs

Recombinant human JAK2 kinase domain protein (Residues 812-1132), sequence (O60674 812-1132): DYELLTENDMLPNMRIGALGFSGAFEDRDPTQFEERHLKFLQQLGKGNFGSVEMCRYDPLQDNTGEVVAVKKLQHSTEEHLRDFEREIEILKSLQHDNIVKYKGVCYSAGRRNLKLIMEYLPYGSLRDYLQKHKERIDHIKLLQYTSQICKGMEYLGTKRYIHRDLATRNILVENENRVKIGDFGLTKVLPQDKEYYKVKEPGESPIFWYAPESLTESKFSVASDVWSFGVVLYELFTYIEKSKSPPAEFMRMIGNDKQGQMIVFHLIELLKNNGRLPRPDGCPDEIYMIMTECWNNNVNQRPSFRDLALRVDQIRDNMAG
T1 sequence (P23458 854-1154): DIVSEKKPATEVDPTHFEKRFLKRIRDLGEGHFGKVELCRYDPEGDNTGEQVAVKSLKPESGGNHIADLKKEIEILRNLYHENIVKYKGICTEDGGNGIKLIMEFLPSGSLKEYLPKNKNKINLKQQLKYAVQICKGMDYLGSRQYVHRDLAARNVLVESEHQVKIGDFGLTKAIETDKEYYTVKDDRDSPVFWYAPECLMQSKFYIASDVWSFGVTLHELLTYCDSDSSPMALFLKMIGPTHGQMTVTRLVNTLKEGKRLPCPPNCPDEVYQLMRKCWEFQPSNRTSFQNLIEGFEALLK

Row | SMILES | Ki [1] [nM] | IC50 [2] [nM] | EC50 at 72 h [3, 7] [µM] | EC50 at 72 h [4, 7] [µM] | EC50 at 72 h [5, 7] [µM] | Ki [6] [nM] | EC50 at 72 h [3, 8] [µM] | EC50 at 72 h [4, 8] [µM] | EC50 at 72 h [5, 8] [µM]
1 | CC(O)C(C)S(=O)(=O)c1ccc(OC(F)F)c(-c2nn(C)cc2NC(=O)c2cnn3cccnc23)c1 (single isomer, unassigned) [Example 68, N-[3-[2-(difluoromethoxy)-5-(2-hydroxy-1-methyl-propyl)sulfonyl-phenyl]-1-methyl-pyrazol-4-yl]pyrazolo[1,5-a]pyrimidine-3-carboxamide] | 0.6 | 62 | 19 | 32 | ≥ 50 | 0.25 |  |  | 
2 | Cn1cc(NC(=O)c2cnn3cccnc23)c(-c2cc(S(=O)(=O)C(F)F)ccc2OC(F)F)n1 [Example 9, N-[3-[2-(difluoromethoxy)-5-(difluoromethylsulfonyl)phenyl]-1-methyl-pyrazol-4-yl]pyrazolo[1,5-a]pyrimidine-3-carboxamide] | 0.27 | 15 | 2.2 | 3.5 | 1.66 | 0.18 | 2.2 | 3.5 | 1.66
3 | Cn1cc(NC(=O)c2cnn3cccnc23)c(-c2cc(S(=O)(=O)c3cccc(O)c3)ccc2OC(F)F)n1 [Example 11, N-[3-[2-(difluoromethoxy)-5-(3-hydroxyphenyl)sulfonyl-phenyl]-1-methyl-pyrazol-4-yl]pyrazolo[1,5-a]pyrimidine-3-carboxamide] | 0.21 | 17 | 3.7 | 5.5 | 6.4 | 0.12 |  |  | 
4 | CN1CCC[C@H]1Cn1cc(NC(=O)c2cnn3cccnc23)c(-c2cc(S(C)(=O)=O)ccc2OC(F)F)n1 [Example 72, N-[3-[2-(difluoromethoxy)-5-methylsulfonyl-phenyl]-1-[[(2S)-1-methylpyrrolidin-2-yl]methyl]pyrazol-4-yl]pyrazolo[1,5-a]pyrimidine-3-carboxamide] | 0.94 | 31 | 20 | 49 | ≥ 50 | 1.5 |  |  | 
